Consider 1 molecule from patent publication US10718761B2, “Phosphatase or kinase activity detection composition and detection method” (INDUSTRY-UNIVERSITY COOPERATION FOUNDATION HANYANG …, priority 2014, dated 2020).

The test system of this test is TAMRA-PEPPKA(p). Nature of the test: Zn(II)-mediated QD-FRET between QD525 and TAMRA-labelled phosphopeptide. As to conditions: QD 2 nM. Type of test: binding. As for the experimental part:
A synthetic peptide substrate labeled with 5(6)-carboxytetramethylrhodamine at the N-terminus (TAMRA-LRRASLG; TAMRA-PEPPKA) was compared with its phosphorylated form (TAMRA-LRRApSLG; TAMRA-PEPPKA(p)) (FIG. 12B). The FRET ratio was determined by the acceptor (FA) emission area (integrated from 550 to 650 nm) relative to the donor (FD) emission area (integrated from 450 to 550 nm). The concentrations of QD, TAMRA-PEPPKA(p) (or TAMRA-PEPPKA), and ZnCl2 were 2 nM, 80 nM and 100 μM, respectively. The QD-FRET spectra were obtained at an excitation wavelength of 380 nm.
The change in FRET between QD and TAMRA-PEPPKA(p) according to a function of Zn^2+ concentration was calculated. Furthermore, the relative FRET percentage was calculated by dividing the experimental FRET ratio by the maximal FRET ratio (0.74). The concentrations of QD and TAMRA-PEPPKA(p) were 2 nM and 80 nM, respectively. Excitation/emission wavelengths of QD-FRET (FIG. 12C (i)), QD (FIG. 12C (ii)), and TAMRA-PEPPKA(p) (FIG. 12C (iii)) were obtained at 380/580, 380/525, 530/580 nm, respectively.

As usually defined, the Kd is the concentration at which binding is half-saturated.

As to `[Cl-].[Cl-].[Zn+2]` [Zn(II), ZnCl2], the “FRET ratio (FA/FD)” value (TAMRA-PEPPKA(p) 80 nM, ZnCl2 100 μM, excitation 380 nm) came out at 0.65. For the same molecule, the Kd (free Zn(II) ions, TAMRA-PEPPKA(p) 80 nM (1:40 molar ratio), read-out: binding affinity Kd for TAMRA-PEPPKA(p), based on the FRET efficiency) came out at 8.8 µM.
